For one molecule, IC50 results are on record in EP2727911B1, “Novel means and methods for treating malaria and other parasitic disorders” (Medizinische Hochschule Hannover, priority 2012, dated 2014).

Where a name gives a salt, the structure may show the parent alone.

This assay deals with T1, Dd myosin-1b (Dictyostelium discoideum, UniProt P34092).
T1 sequence (P34092 1-1111): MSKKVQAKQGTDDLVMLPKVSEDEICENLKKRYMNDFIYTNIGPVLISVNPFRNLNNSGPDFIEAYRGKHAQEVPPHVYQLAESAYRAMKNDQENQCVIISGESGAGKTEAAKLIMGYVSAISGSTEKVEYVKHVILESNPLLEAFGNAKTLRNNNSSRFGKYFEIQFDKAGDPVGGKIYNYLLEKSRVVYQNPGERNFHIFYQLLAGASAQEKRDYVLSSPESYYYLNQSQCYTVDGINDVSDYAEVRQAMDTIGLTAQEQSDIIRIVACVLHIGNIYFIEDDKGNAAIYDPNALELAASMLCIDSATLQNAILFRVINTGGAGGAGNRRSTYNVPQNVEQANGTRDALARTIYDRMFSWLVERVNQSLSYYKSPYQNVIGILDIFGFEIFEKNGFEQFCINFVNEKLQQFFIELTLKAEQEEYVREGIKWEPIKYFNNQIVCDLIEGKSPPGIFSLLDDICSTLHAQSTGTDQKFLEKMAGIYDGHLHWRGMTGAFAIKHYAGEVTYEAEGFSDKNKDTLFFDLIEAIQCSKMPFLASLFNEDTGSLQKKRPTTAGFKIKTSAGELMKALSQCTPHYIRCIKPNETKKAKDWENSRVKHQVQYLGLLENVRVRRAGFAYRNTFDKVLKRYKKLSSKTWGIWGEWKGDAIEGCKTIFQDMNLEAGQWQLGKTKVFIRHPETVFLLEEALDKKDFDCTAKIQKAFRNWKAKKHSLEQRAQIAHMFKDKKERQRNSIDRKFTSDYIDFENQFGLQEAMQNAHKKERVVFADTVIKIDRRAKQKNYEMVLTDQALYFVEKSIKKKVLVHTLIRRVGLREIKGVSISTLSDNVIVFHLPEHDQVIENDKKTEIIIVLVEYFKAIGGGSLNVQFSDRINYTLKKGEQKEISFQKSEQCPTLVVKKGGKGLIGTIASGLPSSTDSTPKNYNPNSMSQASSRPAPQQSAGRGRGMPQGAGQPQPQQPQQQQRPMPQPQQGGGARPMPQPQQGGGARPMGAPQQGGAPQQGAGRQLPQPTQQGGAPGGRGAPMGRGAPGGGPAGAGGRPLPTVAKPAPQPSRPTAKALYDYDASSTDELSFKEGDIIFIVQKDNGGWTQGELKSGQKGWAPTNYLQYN
As to the kind of experiment: Actin-activated steady state ATPase assay (PK/LDH-coupled, photometric). The format is biochemical. Conditions: in the presence of 30 µM F-actin, nonlinear regression. As for the experimental part:
In this assay, the ATPase activity of Dictyostelium discoideum myosin-1b is determined, preferably at a ligand concentration of 25µM. Furthermore, the IC50 concentration has been determined by measuring ATPase activity as a function of inhibitor concentration. Alternatively Dictyostelium discoideum myosin-2 can be used.
Actin-activated steady state ATPase experiments were performed following the absorbance change during NADH oxidation in a PK/LDH-coupled ATPase assay at 340 nm […] (Trentham (1972); Furch (1998)). The photometric steady state ATPase assay was applied to determine the potency of the small molecule compounds to inhibit the enzymatic activity of myosin. Dd myosin-1b was used as a model system for the target protein (Pf myosin A). All experiments were carried out in the presence of 30 µM F-actin and the corresponding half-maximal inhibitory concentrations (IC50) were determined by nonlinear regression.

As to `COC(=N)Cc1ccc(O)cc1` [BIP13, Methyl-2-(4-hydroxyphenyl)acetimidate·hydrochloride], the IC50 is 8.07 ± 0.8 µM.

By IC50 is commonly meant the concentration at which inhibition is half-maximal.
